The first assay deals with HIV-1 (strain IIIB). The assay can be described thus: Antiviral activity assay in MT4 cells (propidium iodide based). It is filed as cell-based. As to conditions: Human immunodeficiency virus 1, IIIB; wild type HIV-1 virus, MT4 cells; read-out: Wildtype virus - IC50. On the procedure: Antiviral Activity Assay in MT4 Cells
Aliquots of the test compounds were serially diluted in medium (RPMI 1640, 10% fetal calf serum (FCS), and gentamycin) in 96-well plates (Costar 3598) using a Cetus Pro/Pette. Exponentially growing MT4 cells were harvested and centrifuged at 1000 rpm for 10 min in a Jouan centrifuge (model CR 4 12). Cell pellets were resuspended in fresh medium (RPMI 1640, 20% FCS, 20% IL-2, and gentamycin) to a density of 5×10^5 cells/ml. Cell aliquots were infected by the addition of HIV-1 (strain IIIB) diluted to give a viral multiplicity of infection of 100×TCID50. A similar cell aliquot was diluted with medium to provide a mock-infected control. Cell infection was allowed to proceed for 1 hr at 37° in a tissue culture incubator with humidified 5% CO2 atmosphere. After the 1 hr incubation the virus/cell suspensions were diluted 6-fold with fresh medium, and 125 μl of the cell suspension was added to each well of the plate containing pre-diluted compound. Plates were then placed in a tissue culture incubator with humidified 5% CO2 for 5 days. At the end of the incubation period, 27 μl of 5% Nonidet-40 was added to each well of the incubation plate. After thorough mixing with a Costar multitip pipetter, 60 μl of the mixture was transferred to filter-bottomed 96-well plates. The plates were analyzed in an automated assay instrument (Screen Machine, Idexx Laboratories). The assay makes use of a propidium iodide dye to estimate the DNA content of each well.
The anti-viral potency in MT-4 cells of the compounds set forth in Tables 1 and 2 was determined using the above technique.
For the compound `CC(C)CN(C[C@@H](O)[C@H](Cc1ccc(OCCCN)cc1)NC(=O)OC1CO[C@H]2OCC[C@@H]12)S(=O)(=O)c1ccc2c(c1)OCO2` (stereo in doubt) [Compound 222, (3R,3aS,6aR)-hexahydrofuro[2,3-b]furan-3-yl (1S,2R)-1-[4-(3-aminopropoxy)benzyl]-3-[(1,3-benzodioxol-5-ylsulfonyl)(isobutyl)amino]-2-hydroxypropylcarbamate], the IC50 was 10 to 100 nM.

The assay is the same for the next values; noted with them: Human immunodeficiency virus 1, MT4, 120 h; MT-4 cells, HIV-1 strain IIIB, 5 days; read-out: IC50 (Antiviral Activity of Compounds of the Invention).
Take `CC(C)CN(C[C@@H](O)[C@H](Cc1ccc(OCCN2CCOCC2)cc1)NC(=O)OC(C)(C)C)S(=O)(=O)c1ccc2c(c1)OCO2` [Compound 17, Boc Methylenedioxybenzenesulfonamide Ethylmorpholine Tethered Product]: the IC50 was above 100 nM. Still for that read-out and setting: to `COCCN(CCOC)CCOc1ccc(C[C@H](NC(=O)OC(C)(C)C)[C@H](O)CN(CC(C)C)S(=O)(=O)c2ccc3c(c2)OCO3)cc1` [Compound 18, Boc Methylenedioxybenzenesulfonamide Bis-Methoxyethylamine Tethered Product] belongs 10 to 100 nM; to `CC(C)CN(C[C@@H](O)[C@H](Cc1ccc(OCCCN2CCOCC2)cc1)NC(=O)OC(C)(C)C)S(=O)(=O)c1ccc2c(c1)OCO2` [Compound 20, Boc Methylenedioxybenzenesulfonamide Propylmorpholine Tethered Product], 10 to 100 nM.

Regarding `CC(C)CN(C[C@@H](O)[C@H](Cc1ccc(OCC(=O)N2CCOCC2)cc1)NC(=O)OC(C)(C)C)S(=O)(=O)c1ccc2c(c1)OCO2` [Compound 21, Boc methylenedioxybenzenesulfonamide Acetylmorpholine Tethered Product], the IC50 lay within 10 to 100 nM. The same measure, in the same setting: under `CC(C)CN(C[C@@H](O)[C@H](Cc1ccc(OCc2ccccc2)cc1)NC(=O)O[C@H]1CO[C@H]2OCC[C@H]21)S(=O)(=O)c1ccc2nc(N)sc2c1` [Compound 44, Bis-THF Benzothiazolesulfonamide Benzyl Ether] stands below 1 nM; under `CC(C)CN(C[C@@H](O)[C@H](Cc1ccc(OCCN2CCOCC2)cc1)NC(=O)O[C@H]1CO[C@H]2OCC[C@H]21)S(=O)(=O)c1ccc2c(c1)OCO2` [Compound 48, Bis-THF Methylenedioxybenzenesulfonamide Ethylmorpholine Tethered Product], 1 to 10 nM; under `CC(C)CN(C[C@@H](O)[C@H](Cc1ccc(OCCCN2CCOCC2)cc1)NC(=O)O[C@H]1CO[C@H]2OCC[C@H]21)S(=O)(=O)c1ccc2c(c1)OCO2` [Compound 49, Bis-THF Methylenedioxybenzenesulfonamide Propylmorpholine Tethered Product], 1 to 10 nM. Same read-out and setting: to `CC(C)CN(C[C@@H](O)[C@H](Cc1ccc(OCC(=O)N2CCOCC2)cc1)NC(=O)O[C@H]1CO[C@H]2OCC[C@H]21)S(=O)(=O)c1ccc2c(c1)OCO2` [Compound 50, Bis-THF Methylenedioxybenzenesulfonamide Acetylmorpholine Tethered Product] belongs 10 to 100 nM; to `COCCN(CCOC)CCOc1ccc(C[C@H](NC(=O)O[C@H]2CO[C@H]3OCC[C@H]32)[C@H](O)CN(CC(C)C)S(=O)(=O)c2ccc3c(c2)OCO3)cc1` [Compound 51, Bis-THF Methylenedioxybenzenesulfonamide Bis-Methoxyethylamine Tethered Product], 1 to 10 nM; to `Cc1cc(C)n(COc2ccc(C[C@H](NC(=O)O[C@H]3CO[C@H]4OCC[C@H]43)[C@H](O)CN(CC(C)C)S(=O)(=O)c3ccc4c(c3)OCO4)cc2)n1` [Compound 56, Bis-THF Methylenedioxybenzenesulfonamide 1-methyl-3,5-dimethylpyrazole Tethered Product], 10 to 100 nM. Still for that read-out and setting: under `CC(C)CN(C[C@@H](O)[C@H](Cc1ccc(OCCn2cccn2)cc1)NC(=O)O[C@H]1CO[C@H]2OCC[C@H]21)S(=O)(=O)c1ccc2c(c1)OCO2` [Compound 57, Bis-THF Methylenedioxybenzenesulfonamide Ethylpyrazole Tethered Product] stands 1 to 10 nM.

Staying with this assay, now noted: MT-4 cells, HIV-1 strain IIIB, 5 days; read-out: IC50 (Antiviral Activity of Compounds of the Invention).
With `CC(C)CN(CC(O)C(Cc1ccc(OCCN2CCOCC2)cc1)NC(=O)OC(C)(C)C)S(=O)(=O)c1ccc(N)cc1` (stereo not drawn) [Compound 10], the IC50 is above 100 nM. Take `CC(C)CN(CC(O)C(Cc1ccc(OCCCN2CCOCC2)cc1)NC(=O)OC(C)(C)C)S(=O)(=O)c1ccc(N)cc1` (stereo not drawn) [Compound 11]: the 50% inhibitory concentration (IC50) was above 100 nM. On to `COCCN(CCOC)CCOc1ccc(CC(NC(=O)OC(C)(C)C)C(O)CN(CC(C)C)S(=O)(=O)c2cccc(N)c2)cc1` (stereo not drawn) [Compound 13], for which the IC50 was above 100 nM.

In the case of `CC(C)CN(CC(O)C(Cc1ccc(OCCN2CCOCC2)cc1)NC(=O)OC(C)(C)C)S(=O)(=O)c1cccc(N)c1` (stereo not drawn) [Compound 15], the 50% inhibitory concentration (IC50) was above 100 nM.

On to `CC(C)CN(CC(O)C(Cc1ccc(OCCCN2CCOCC2)cc1)NC(=O)OC(C)(C)C)S(=O)(=O)c1cccc(N)c1` (stereo not drawn) [Compound 16], for which the IC50 is above 100 nM. As to `COCCN(CCOC)CCOc1ccc(CC(NC(=O)OC2CCOC2)C(O)CN(CC(C)C)S(=O)(=O)c2cccc(N)c2)cc1` (stereo not drawn) [Compound 22, bis-THF m-aminophenylsulfonamide benzyl ether], the IC50 was 10 to 100 nM.

Turning to `CC(C)CN(CC(O)C(Cc1ccc(OCCN2CCOCC2)cc1)NC(=O)OC1CCOC1)S(=O)(=O)c1cccc(N)c1` (stereo not drawn) [Compound 23], the IC50 lay in the range of 10 to 100 nM. On the same count and under the same terms, under `COCCN(CCOC)CCOc1ccc(CC(NC(=O)OC2CCOC2)C(O)CN(CC(C)C)S(=O)(=O)c2ccc3c(c2)OCO3)cc1` (stereo not drawn) [Compound 24] stands 10 to 100 nM.

As for `COCCN(CCOC)CCOc1ccc(CC(NC(=O)OC2COCOC2)C(O)CN(CC(C)C)S(=O)(=O)c2cccc(N)c2)cc1` (stereo not drawn) [Compound 25], the IC50 lay in the range of 10 to 100 nM. Same read-out and setting: under `CC(C)CN(CC(O)C(Cc1ccc(OCc2ccccc2)cc1)NC(=O)OC1COC2OCCC12)S(=O)(=O)c1ccc(N)cc1` (stereo not drawn) [Compound 26] stands below 1 nM. With `COCCN(CCOC)CCOc1ccc(CC(NC(=O)OC2COC3OCCC23)C(O)CN(CC(C)C)S(=O)(=O)c2ccc(N)cc2)cc1` (stereo not drawn) [Compound 27], the IC50 is above 100 nM. For `CC(C)CN(CC(O)C(Cc1ccc(OCCN2CCOCC2)cc1)NC(=O)OC1COC2OCCC12)S(=O)(=O)c1ccc(N)cc1` (stereo not drawn) [Compound 29], the IC50 is 10 to 100 nM. Still for that read-out and setting: under `CC(C)CN(CC(O)C(Cc1ccc(OCCCN2CCOCC2)cc1)NC(=O)OC1COC2OCCC12)S(=O)(=O)c1ccc(N)cc1` (stereo not drawn) [Compound 30] stands 10 to 100 nM; under `CC(C)CN(CC(O)C(Cc1ccc(OCc2ccccn2)cc1)NC(=O)OC1COC2OCCC12)S(=O)(=O)c1ccc(N)cc1` (stereo not drawn) [Compound 31], 1 to 10 nM; under `CC(C)CN(CC(O)C(Cc1ccc(O)cc1)NC(=O)OC1COC2OCCC12)S(=O)(=O)c1ccc(N)cc1` (stereo not drawn) [Compound 32], 10 to 100 nM. On the same count and under the same terms, under `Cc1cc(COc2ccc(CC(NC(=O)OC3COC4OCCC34)C(O)CN(CC(C)C)S(=O)(=O)c3ccc(N)cc3)cc2)no1` (stereo not drawn) [Compound 33] stands 10 to 100 nM; under `COCCN(CCOC)CCOc1ccc(CC(NC(=O)OC2COC3OCCC23)C(O)CN(CC(C)C)S(=O)(=O)c2cccc(N)c2)cc1` (stereo not drawn) [Compound 34], above 100 nM.

Consider `Cc1cc(COc2ccc(CC(NC(=O)OC3COC4OCCC34)C(O)CN(CC(C)C)S(=O)(=O)c3cccc(N)c3)cc2)no1` (stereo not drawn) [Compound 35], for which the IC50 was 10 to 100 nM. With `CC(C)CN(CC(O)C(Cc1ccc(OCc2ccccn2)cc1)NC(=O)OC1COC2OCCC12)S(=O)(=O)c1cccc(N)c1` (stereo not drawn) [Compound 36], the IC50 lay in the range of 10 to 100 nM.

In the case of `CC(C)CN(CC(O)C(Cc1ccc(OCCN2CCOCC2)cc1)NC(=O)OC1COC2OCCC12)S(=O)(=O)c1cccc(N)c1` (stereo not drawn) [Compound 37], the IC50 was in the range of 10 to 100 nM. The same measure, in the same setting: to `Cc1cc(S(=O)(=O)N(CC(C)C)CC(O)C(Cc2ccc(OCc3ccccc3)cc2)NC(=O)OC2COC3OCCC23)ccc1O` (stereo not drawn) [Compound 38] belongs below 1 nM; to `CC(C)CN(CC(O)C(Cc1ccc(OCc2ccccc2)cc1)NC(=O)OC1COC2OCCC12)S(=O)(=O)c1ccc2c(c1)OCO2` (stereo not drawn) [Compound 46, Bis-THF Methylenedioxybenzenesulfonamide Benzyl Ether], below 1 nM.

As for `COCCN(CCOC)CCOc1ccc(CC(NC(=O)OC(C)(C)C)C(O)CN(CC(C)(C)CCC#N)S(=O)(=O)c2ccc(N)cc2)cc1` (stereo not drawn) [Compound 67], the concentration for half-maximal inhibition (IC50) is above 100 nM. Same read-out and setting: under `COCCN(CCOC)CCOc1ccc(CC(NC(=O)OC(C)(C)C)C(O)CN(CC(C)(C)CCC#N)S(=O)(=O)c2ccc3c(c2)OCO3)cc1` (stereo not drawn) [Compound 68] stands above 100 nM; under `COCCN(CCOC)CCOc1ccc(CC(NC(=O)OC2CCOC2)C(O)CN(CC(C)(C)CCC#N)S(=O)(=O)c2ccc3c(c2)OCO3)cc1` (stereo not drawn) [Compound 69], above 100 nM; under `COCCN(CCOC)CCOc1ccc(CC(NC(=O)OC2CCOC2)C(O)CN(CC(C)(C)CCC#N)S(=O)(=O)c2ccc(N)cc2)cc1` (stereo not drawn) [Compound 70], above 100 nM.

Consider `CC(C)(CCC#N)CN(CC(O)C(Cc1ccc(OCc2ccccc2)cc1)NC(=O)OC1COC2OCCC12)S(=O)(=O)c1ccc(N)cc1` (stereo not drawn) [Compound 71], for which the 50% inhibitory concentration (IC50) was in the range of 1 to 10 nM.

The values above are taken from patent US8455497B2, “Inhibitors of aspartyl protease” (Vertex Pharmaceuticals Incorporated, priority 1999, dated 2013).
